# Where a name gives a salt, the structure may show the parent alone.
# Columns and labels:
# FU-EPS-1 = test system: FU-EPS-1
# Description: (§1)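 60-agent targeted drug screens (Drug Screen V3 on epithelioid sarcoma cultures PCB490-3/4/5, PCB495, EPS cell lines ESX, VA-ES-BJ, FU-EPS-1 and SkMc myoblasts; PPTI screen v2.1 on human UPS PCB197 and canine UPS S1-12). 384-well plates, 72 h, CellTiter-Glo viability; IC50 by Hill curve fit. 10000 nM = no IC50 achieved (top reported value).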
# PCB-490-4 = test system: PCB-490-4 (human epithelioid sarcoma primary culture)
# Description: as §1
# PCB-490-5 = test system: PCB-490-5 (human epithelioid sarcoma primary culture)
# Description: as §1
# ESX = test system: ESX
# Description: as §1
# PCB-490-3 = test system: PCB-490-3 (human epithelioid sarcoma primary culture)
# Description: as §1
# PCB-495 = test system: PCB-495 (human epithelioid sarcoma primary culture)
# Description: as §1
# VA-ES-BJ = test system: VA-ES-BJ
# Description: as §1
# SkMc = test system: SkMc
# Description: as §1
# s1-12 = test system: s1-12 (canine undifferentiated pleomorphic sarcoma culture)
# Description: as §1
# pcb-00197 = test system: pcb-00197 (human undifferentiated pleomorphic sarcoma culture)
# Description: as §1
SMILES,IC50 cell viability (FU-EPS-1),IC50 cell viability (PCB-490-4),IC50 cell viability (PCB-490-5),IC50 cell viability (ESX),IC50 cell viability (PCB-490-3),IC50 cell viability (PCB-495),IC50 cell viability (VA-ES-BJ),IC50 cell viability (SkMc),IC50 cell viability (s1-12),IC50 cell viability (pcb-00197),IC50 cell viability (U23674)
CN1CCc2c(c3ccccc3n2Cc2ccc(C(=O)NO)cc2)C1 [Tubastatin A],> 10 µM,> 10 µM,> 10 µM,> 10 µM,> 10 µM,> 10 µM,> 10 µM,> 10 µM,–,–,–
Clc1ccc(NN=C(c2ccccc2)c2ccccn2)nc1 [JIB-04],2.4 µM,3.73 µM,1.62 µM,0.6 µM,> 10 µM,1.14 µM,1.69 µM,1.41 µM,–,–,–
CC(=O)c1c(C)c2cnc(Nc3ccc(N4CCNCC4)cn3)nc2n(C2CCCC2)c1=O,> 10 µM,> 10 µM,> 10 µM,> 10 µM,> 10 µM,> 10 µM,> 10 µM,> 10 µM,–,–,–
CS(=O)(=O)c1cccc(CNc2nc(Nc3ccc4c(c3)CCC(=O)N4)ncc2C(F)(F)F)c1,> 10 µM,> 10 µM,> 10 µM,> 10 µM,> 10 µM,> 10 µM,> 10 µM,> 10 µM,–,–,–
CC[C@@H]1C(=O)N(C)c2cnc(Nc3ccc(C(=O)N[C@H]4CC[C@H](N5CCN(CC6CC6)CC5)CC4)cc3OC)nc2N1C(C)C [Volasertib],0.35 µM,> 10 µM,> 10 µM,6.23 µM,> 10 µM,6.54 µM,1.09 µM,> 10 µM,–,–,–
CC(C)n1c(/C=C/C(O)CC(O)CC(=O)O)c(-c2ccc(F)cc2)c2ccccc21 (stereo unspecified) [Fluvastatin],1.48 µM,4.28 µM,1.32 µM,2.5 µM,1.32 µM,0.08 µM,0.1 µM,8.73 µM,–,–,–
O=c1ncccn1[C@@H]1O[C@H](CO)[C@@H](O)[C@H]1O [Zebularine],> 10 µM,> 10 µM,> 10 µM,> 10 µM,> 10 µM,> 10 µM,> 10 µM,> 10 µM,–,–,–
C=CCn1c(=O)c2cnc(Nc3ccc(N4CCN(C)CC4)cc3)nc2n1-c1cccc(C(C)(C)O)n1 [MK-1775],1.01 µM,> 10 µM,> 10 µM,0.17 µM,> 10 µM,> 10 µM,0.3 µM,0.16 µM,–,–,–
CCOC(=O)CCNc1cc(N2CCc3ccccc3CC2)nc(-c2ccccn2)n1 [GSK-J4 HCl],> 10 µM,> 10 µM,> 10 µM,1.58 µM,> 10 µM,> 10 µM,4.72 µM,> 10 µM,–,–,–
CC1(C)CCC(c2ccc(Cl)cc2)=C(CN2CCN(c3ccc(C(=O)NS(=O)(=O)c4ccc(N[C@H](CCN5CCOCC5)CSc5ccccc5)c(S(=O)(=O)C(F)(F)F)c4)cc3)CC2)C1 [ABT-263],> 10 µM,> 10 µM,> 10 µM,> 10 µM,> 10 µM,> 10 µM,> 10 µM,> 10 µM,–,–,–
CO[C@@H]1[C@H](N(C)C(=O)c2ccccc2)C[C@H]2O[C@]1(C)n1c3ccccc3c3c4c(c5c6ccccc6n2c5c31)C(=O)NC4 [PKC412],> 10 µM,1.25 µM,1.73 µM,6.4 µM,> 10 µM,1.36 µM,1.8 µM,> 10 µM,–,–,–
CC(C)n1nc(-c2ccc3oc(N)nc3c2)c2c(N)ncnc21 [INK 128],> 10 µM,0.06 µM,0.1 µM,0.01 µM,0.26 µM,0.14 µM,0.03 µM,0.02 µM,–,–,–
CN(C)C(=N)NC(=N)N [Metformin HCL],> 10 µM,> 10 µM,> 10 µM,> 10 µM,> 10 µM,> 10 µM,> 10 µM,> 10 µM,–,–,–
CNC(=O)CN1CCC(Oc2cc3c(Nc4cccc(Cl)c4F)ncnc3cc2OC)CC1 [AZD8931],> 10 µM,> 10 µM,> 10 µM,4.75 µM,> 10 µM,> 10 µM,> 10 µM,> 10 µM,–,–,–
COc1cccc(OCCCN)c1-c1cc(Nc2cnc(C#N)cn2)n[nH]1,> 10 µM,> 10 µM,> 10 µM,0.23 µM,> 10 µM,3.17 µM,0.69 µM,1.29 µM,–,–,–
CCCc1c(OCCCOc2cc(O)c(-c3ccc(F)cc3)cc2CC)cccc1Oc1ccccc1C(=O)O,> 10 µM,> 10 µM,> 10 µM,> 10 µM,> 10 µM,> 10 µM,> 10 µM,> 10 µM,–,–,–
C=C[C@@]1(C)CC(=O)[C@]2(O)[C@@]3(C)[C@@H](O)CCC(C)(C)[C@@H]3[C@H](O)[C@H](OC(C)=O)[C@@]2(C)O1 [Forskolin],> 10 µM,> 10 µM,> 10 µM,> 10 µM,> 10 µM,> 10 µM,> 10 µM,> 10 µM,–,–,–
Cc1cc(Nc2cc(N3CCN(C)CC3)nc(Sc3ccc(NC(=O)C4CC4)cc3)n2)n[nH]1 [Tozasertib],> 10 µM,3.33 µM,> 10 µM,> 10 µM,> 10 µM,> 10 µM,> 10 µM,2.62 µM,–,–,–
CC(C)(C)Cn1c(N)nc2ccc(-c3[nH]c(C(C)(C)C)nc3-c3ccc(F)cc3)nc21,> 10 µM,> 10 µM,> 10 µM,5.07 µM,> 10 µM,> 10 µM,> 10 µM,> 10 µM,–,–,–
NC(=O)c1ccc(-c2nc(-c3ccccn3)c(-c3ccc4c(c3)OCO4)[nH]2)cc1,–,–,–,–,–,–,–,–,> 10 µM,> 10 µM,> 10 µM
CN[C@@H](C)C(=O)N[C@H](C(=O)N1CCC[C@H]1c1nc(C(=O)c2ccc(F)cc2)cs1)C1CCCCC1 [LCL161],> 10 µM,> 10 µM,> 10 µM,1.8 µM,> 10 µM,> 10 µM,3.15 µM,> 10 µM,–,–,–
Cc1ccc(S(=O)(=O)/C=C/C#N)cc1 [BAY-11-7082],> 10 µM,1.93 µM,0.77 µM,> 10 µM,> 10 µM,> 10 µM,0.49 µM,> 10 µM,–,–,–
C[C@@H](Oc1ccc2[nH]nc(/C=C/c3cnn(CCO)c3)c2c1)c1c(Cl)cncc1Cl,> 10 µM,0.5 µM,0.46 µM,4.52 µM,1.73 µM,0.19 µM,> 10 µM,> 10 µM,–,–,–
COc1ccc(C[C@@H](C)[C@@H](C)Cc2ccc(OC)c(OC)c2)cc1OC [EM1421],> 10 µM,> 10 µM,> 10 µM,> 10 µM,> 10 µM,> 10 µM,> 10 µM,> 10 µM,–,–,–
Cn1cc(NC(=O)c2cc(NC(=O)CNC(=N)N)cn2C)cc1C(=O)NCCC(=N)N [Netropsin Dihydrochloride],> 10 µM,> 10 µM,> 10 µM,> 10 µM,> 10 µM,5.52 µM,> 10 µM,> 10 µM,–,–,–

SMILES,IC50 cell viability (FU-EPS-1),IC50 cell viability (PCB-490-4),IC50 cell viability (PCB-490-5),IC50 cell viability (ESX),IC50 cell viability (PCB-490-3),IC50 cell viability (PCB-495),IC50 cell viability (VA-ES-BJ),IC50 cell viability (SkMc),IC50 cell viability (s1-12),IC50 cell viability (pcb-00197),IC50 cell viability (U23674)
CNC(=O)CN1CCC(Oc2cc3c(Nc4cccc(Cl)c4F)ncnc3cc2OC)CC1 [AZD-8931],–,–,–,–,–,–,–,–,> 10 µM,> 10 µM,–
CC1=C(/C=C/C(C)=C/C=C/C(C)=C/C(=O)O)C(C)(C)CCC1 [retinoic acid],–,–,–,–,–,–,–,–,2.04 µM,> 10 µM,–
CO[C@H]1C[C@@H]2CC[C@@H](C)[C@@](O)(O2)C(=O)C(=O)N2CCCC[C@H]2C(=O)O[C@H]([C@H](C)C[C@@H]2CC[C@@H](OC(=O)C(C)(CO)CO)[C@H](OC)C2)CC(=O)[C@H](C)/C=C(\C)[C@@H](O)[C@@H](OC)C(=O)[C@H](C)C[C@H](C)/C=C/C=C/C=C/1C [temsirolimus],–,–,–,–,–,–,–,–,> 10 µM,> 10 µM,–
Nc1nc2c(ncn2COC(CO)CO)c(=O)[nH]1 [Ganciclovir],0.02 µM,> 10 µM,> 10 µM,> 10 µM,> 10 µM,> 10 µM,> 10 µM,> 10 µM,–,–,–
CCN(CC)CCCC(C)Nc1c2ccc(Cl)cc2nc2ccc(OC)cc12 (stereo unspecified) [quinacrine],–,–,–,–,–,–,–,–,0.99 µM,1.57 µM,–
Cc1ccc(Nc2nccc(N(C)c3ccc4c(C)n(C)nc4c3)n2)cc1S(N)(=O)=O [Pazopanib],> 10 µM,> 10 µM,> 10 µM,> 10 µM,> 10 µM,> 10 µM,> 10 µM,> 10 µM,–,–,–
Cc1cc(Nc2cc(N3CCN(C)CC3)nc(Sc3ccc(NC(=O)C4CC4)cc3)n2)n[nH]1 [tozasertib],–,–,–,–,–,–,–,–,> 10 µM,> 10 µM,–
C[C@@H](Oc1cc(-c2cnn(C3CCNCC3)c2)cnc1N)c1c(Cl)ccc(F)c1Cl [Crizotinib],0.94 µM,1.8 µM,4.62 µM,4.37 µM,5.94 µM,1.31 µM,0.53 µM,0.41 µM,–,–,–
Oc1c2ccccc2c2c3c(cccc13)N=N2,–,–,–,–,–,–,–,–,1.36 µM,> 10 µM,–
N#CC[C@H](C1CCCC1)n1cc(-c2ncnc3[nH]ccc23)cn1 [Ruxolitinib],> 10 µM,> 10 µM,> 10 µM,> 10 µM,> 10 µM,> 10 µM,> 10 µM,> 10 µM,–,–,–
COc1cc2nccc(Oc3ccc(NC(=O)C4(C(=O)Nc5ccc(F)cc5)CC4)cc3)c2cc1OC [Cabozantinib],–,–,–,–,–,–,–,–,> 10 µM,> 10 µM,–
Cc1cc(-c2ncc(CC(=O)Nc3ccc(-c4cnccn4)cn3)cc2C)ccn1 [LGK974],> 10 µM,> 10 µM,> 10 µM,> 10 µM,> 10 µM,> 10 µM,> 10 µM,> 10 µM,–,–,–
CCNC(=O)c1noc(-c2cc(C(C)C)c(O)cc2O)c1-c1ccc(CN2CCOCC2)cc1 [AUY922],–,–,–,–,–,–,–,–,0.03 µM,0.4 µM,–
Nc1nc(Nc2ccc(S(N)(=O)=O)cc2)nn1C(=S)Nc1c(F)cccc1F [Cdk1/2 inhibitor III],> 10 µM,1.02 µM,1.1 µM,0.2 µM,1.41 µM,0.42 µM,0.13 µM,0.29 µM,–,–,–
CCOc1cc2ncc(C#N)c(Nc3ccc(F)c(Cl)c3)c2cc1NC(=O)/C=C/CN(C)C [pelitinib],–,–,–,–,–,–,–,–,0.2 µM,> 10 µM,–
Cn1cc(C2=C(c3cn(C4CCN(Cc5ccccn5)CC4)c4ccccc34)C(=O)NC2=O)c2ccccc21 [enzastaurin],–,–,–,–,–,–,–,–,> 10 µM,> 10 µM,–
Cc1[nH]c2ccccc2c1CCNCc1ccc(/C=C/C(=O)NO)cc1 [Panobinostat],0.15 µM,0.17 µM,0.11 µM,0.12 µM,0.53 µM,0.23 µM,0.02 µM,0.18 µM,–,–,–
Cc1ccc(-c2cc(C(F)(F)F)nn2-c2ccc(S(N)(=O)=O)cc2)cc1 [Celecoxib],> 10 µM,> 10 µM,> 10 µM,> 10 µM,> 10 µM,> 10 µM,> 10 µM,> 10 µM,–,–,–
COc1cc2c(Oc3ccc4[nH]c(C)cc4c3F)ncnc2cc1OCCCN1CCCC1 [cediranib],–,–,–,–,–,–,–,–,> 10 µM,> 10 µM,–
CC(C)C[C@H](NC(=O)[C@H](CCc1ccccc1)NC(=O)CN1CCOCC1)C(=O)N[C@@H](Cc1ccccc1)C(=O)N[C@@H](CC(C)C)C(=O)[C@@]1(C)CO1 [carfilzomib],–,–,–,–,–,–,–,–,0.99 µM,0.47 µM,–
CC(C)C[C@H](NC(=O)[C@H](Cc1ccccc1)NC(=O)c1cnccn1)B(O)O [bortezomib],–,–,–,–,–,–,–,–,4.69 µM,4.83 µM,–
C[C@@]1(C(=O)Nc2ccc(F)nc2)CCCN1c1nc(Nc2cc(C3CC3)n[nH]2)c2cccn2n1,–,–,–,–,–,–,–,–,0.01 µM,2.35 µM,–
N#Cc1ccc(COC[C@H]2O[C@@H](n3c(NCc4ccc(Cl)c(Cl)c4)nc4c(N)ncnc43)[C@H](O)[C@@H]2O)cc1,–,–,–,–,–,–,–,–,> 10 µM,> 10 µM,–
CS(=O)(=O)CCNCc1ccc(-c2ccc3ncnc(Nc4ccc(OCc5cccc(F)c5)c(Cl)c4)c3c2)o1 [lapatinib],–,–,–,–,–,–,–,–,> 10 µM,> 10 µM,–

# — the supplement of paper PMC6580486
